Marks after values point to notes of the source that are not given here.
Columns and labels:
rodents = test: In vivo mechanistic studies in rodents; settings: after the first dose
Ovariectomized Primates [1] = test: Biomechanical material properties of beam specimens from femur diaphysis; type: in vivo, Macaca fascicularis; settings: for E (Young's modulus) / u (toughness) / εa / σa: femur diaphysis beam, mean ± SEM
Text: (§1) Biomechanical tests were done on lumbar vertebrae L-3 to L-4, the femur neck, humerus midshaft, and on a cortical bone specimen machined from the femur diaphysis (measures defined in Table 2). Conventional static and dynamic histomorphometry were done (measures described in Table 6) on the humerus midshaft, lumbar vertebra L-2, femoral neck, femur midshaft, the radius midshaft and distal radius. Initial statistical analyses compared all groups to vehicle-treated ovariectomized controls. The data is suitable for additional exploratory analyses to examine dose dependency, effects of withdrawal, interactions between outcomes, and changes in time by methods known to those of skill in the art. All assays were conducted and determined by methods known in the art.

post-menopausal women [2] = test: Clinical trial: number of non-vertebral fractures; type: in vivo, Humans
Ovariectomized Primates [3] = test: Biomechanical measure of strength of femur neck; type: in vivo, Macaca fascicularis; design: Fa, Proximal femur neck: unit not given here; settings: for Fa, Proximal femur neck: mean ± SEM
Text: as §1

[4] = test system: ovariectomized cynomolgus primates; test: Iliac biopsy histomorphometry (cancellous bone); type: in vivo, Macaca fascicularis
Text: (§2) All animals were euthanized after 18 months.

[5] = cynomolgus monkey, in vivo
Protocol: Serum and urinary samples were taken 24 hours after vehicle or rhPTH(1-34) injection at 3-month intervals. A sparse sampling design of 5 monkeys in each rhPTH(1-34)-treated group was used for pharmacokinetics, with sampling (spanning 0 to 240 minutes each time) at baseline, 7, 11, and 17 months.

post-menopausal women [6] = test: Clinical trial: BMC, BMD and bone area by dual energy absorptiometry (DEXA); type: in vivo, Humans
Protocol: The effect of PTH on bone mineral content (BMC), bone mineral density (BMD), and bone area were determined by dual energy absorptiometry (DEXA), and the results are reported in Tables 12-14. PTH administration caused apparent increases in BMC at the patient's lumbar spine, femur and hip, wrist, and throughout the patient's whole body (Table 12). Treatment with PTH caused significant increases in the patient's BMD at the lumbar spine, femur and hip (Table 13). The increases at the lumbar spine, femur and hip were statistically significant with p<0.001 (Table 13). […] The increases were statistically significant for the lumbar spine and hip neck (Table 14).

[7] = test system: cortical bone of the humerus; test: Histomorphometry and polarized Fourier transform infrared microscopy of humerus cortical bone; type: in vivo, Macaca fascicularis
Protocol: For certain experimental subjects, cortical bone of the humerus was examined by histomorphometry and by polarized Fourier transform infrared microscopy. The Fourier transform infrared microscopy was conducted by an adaptation of known methods for such microscopy.

[8] = test system: ovariectomized cynomolgus primates; test: Serum and urine measures in the primate study; type: in vivo, Macaca fascicularis
Text: as §2

Ovariectomized Primates [9] = test: Biomechanical measures of strength in the spine (lumbar vertebrae L-3 and L-4); type: in vivo, Macaca fascicularis; settings: for A (cross-sectional area) / E (Young's modulus) / Fy (yield force) / S (stiffness): L-3 and L-4 combined, mean ± SEM
Text: as §1

[10] = compared to ovariectomized controls
[11] = PTH1-W: withdrawal after 1 µg/kg for 12 months
[12] = PTH5-W: withdrawal after 5 µg/kg for 12 months
[13] = compared to ovariectomized, 24 hours after injection
[14] = PTH1-W: withdrawal for 6 months after 1 µg/kg for 12 months
[15] = PTH5-W: withdrawal for 6 months after 5 µg/kg for 12 months

## teriparatide [rhPTH(1-34)]
rodents
  time to detectable increase in bone forming surfaces: ≤ 24 h
Ovariectomized Primates [1]; [10]
  material properties of beam specimens machined from the femoral diaphysis: did not alter
Ovariectomized Primates [1]; [11]
  E (Young's modulus): 16.6 ± 0.6 Gpa
  u (toughness): 5.3 ± 0.4 mJ/m^3
  εa: 0.034 ± 0.002
  σa: 214 ± 6 Mpa
Ovariectomized Primates [1]; PTH1: 1 µg/kg for 18 months
  E (Young's modulus): 17.1 ± 0.4 Gpa
  u (toughness): 6.1 ± 0.4 mJ/m^3
  εa: 0.036 ± 0.002
  σa: 222 ± 4 Mpa
Ovariectomized Primates [1]; [12]
  E (Young's modulus): 15.3 ± 0.6^a Gpa
  u (toughness): 6.1 ± 0.4 mJ/m^3
  εa: 0.038 ± 0.002
  σa: 208 ± 6 Mpa
Ovariectomized Primates [1]; PTH5: 5 µg/kg for 18 months
  E (Young's modulus): 15.4 ± 0.6^a Gpa
  u (toughness): 5.4 ± 0.4 mJ/m^3
  εa: 0.034 ± 0.002
  σa: 206 ± 6 Mpa
post-menopausal women [2]; PTH-20 (N=541)
  number of non-vertebral fractures, Ankle: 2
  number of non-vertebral fractures, Foot: 1
  number of non-vertebral fractures, Hip: 2
  number of non-vertebral fractures, Humerus: 4
  number of non-vertebral fractures, Other: 14
  number of non-vertebral fractures, Pelvis: 1
  number of non-vertebral fractures, Radius: 7
  number of non-vertebral fractures, Ribs: 5
  number of non-vertebral fractures, Total: 34
  number of non-vertebral fractures, Total w/o "Other": 21
post-menopausal women [2]; PTH-40 (N=552)
  number of non-vertebral fractures, Ankle: 2
  number of non-vertebral fractures, Foot: 4
  number of non-vertebral fractures, Hip: 3
  number of non-vertebral fractures, Humerus: 3
  number of non-vertebral fractures, Other: 9
  number of non-vertebral fractures, Pelvis: 0
  number of non-vertebral fractures, Radius: 10
  number of non-vertebral fractures, Ribs: 5
  number of non-vertebral fractures, Total: 32
  number of non-vertebral fractures, Total w/o "Other": 24
Ovariectomized Primates [3]; [11]
  Fa, Proximal femur neck: 1258 ± 52^a
Ovariectomized Primates [3]; PTH1: 1 µg/kg for 18 months
  Fa, Proximal femur neck: 1235 ± 43^a
Ovariectomized Primates [3]; [12]
  Fa, Proximal femur neck: 1213 ± 42
Ovariectomized Primates [3]; PTH5: 5 µg/kg for 18 months
  Fa, Proximal femur neck: 1362 ± 30^a
Ovariectomized Primates [3]; [10]
  improvement of strength in the femur neck (fu): up to 12%
[4]; iliac biopsy
  mineralization, activation frequency, or remodeling periods: did not affect
[4]; iliac biopsy at 15 months, compared to ovariectomized
  cancellous bone area: increased cancellous bone area
[5]
  pharmacokinetic measures: did not change with time
post-menopausal women [6]; PTH-20
  bone area, endpoint % change (SD) from baseline, Femur/Hip Intertrochanter: 1.01 (4.99) %
  bone area, endpoint % change (SD) from baseline, Femur/Hip Neck: 0.27 (4.91) %
  bone area, endpoint % change (SD) from baseline, Femur/Hip Total: 0.84 (3.16) %
  bone area, endpoint % change (SD) from baseline, Femur/Hip Trochanter: 1.99 (12.16) %
  bone area, endpoint % change (SD) from baseline, Femur/Hip Ward's triangle: 1.13 (7.34) %
  bone area, endpoint % change (SD) from baseline, Lumbar spine: 2.52 (3.52) %
  bone area, endpoint % change (SD) from baseline, Wrist 1/3 radius: 0.52 (3.40) %
  bone area, endpoint % change (SD) from baseline, Wrist Ultradistal: -0.25 (6.00) %
  bone mineral content, endpoint % change (SD) from baseline, Femur/Hip Intertrochanter: 3.59 (7.32) %
  bone mineral content, endpoint % change (SD) from baseline, Femur/Hip Neck: 2.99 (7.26) %
  bone mineral content, endpoint % change (SD) from baseline, Femur/Hip Total: 3.50 (6.26) %
  bone mineral content, endpoint % change (SD) from baseline, Femur/Hip Trochanter: 5.68 (15.58) %
  bone mineral content, endpoint % change (SD) from baseline, Femur/Hip Ward's triangle: 5.36 (14.78) %
  bone mineral content, endpoint % change (SD) from baseline, Lumbar spine: 11.85 (8.83) %
  bone mineral content, endpoint % change (SD) from baseline, Whole body: 1.30 (4.48) %
  bone mineral content, endpoint % change (SD) from baseline, Wrist 1/3 radius: -1.37 (4.51) %
  bone mineral content, endpoint % change (SD) from baseline, Wrist Ultradistal: -0.25 (6.53) %
  bone mineral density, endpoint % change (SD) from baseline, Femur/Hip Intertrochanter: 2.62 (5.52) %
  bone mineral density, endpoint % change (SD) from baseline, Femur/Hip Neck: 2.79 (5.72) %
  bone mineral density, endpoint % change (SD) from baseline, Femur/Hip Total: 2.58 (4.88) %
  bone mineral density, endpoint % change (SD) from baseline, Femur/Hip Trochanter: 3.50 (6.81) %
  bone mineral density, endpoint % change (SD) from baseline, Femur/Hip Ward's triangle: 4.19 (11.93) %
  bone mineral density, endpoint % change (SD) from baseline, Lumbar spine: 9.70 (7.41) %
  bone mineral density, endpoint % change (SD) from baseline, Wrist 1/3 radius: -1.94 (4.07) %
  bone mineral density, endpoint % change (SD) from baseline, Wrist Ultradistal: -0.05 (7.14) %
post-menopausal women [6]; PTH-40
  bone area, endpoint % change (SD) from baseline, Femur/Hip Intertrochanter: 1.01 (4.89) %
  bone area, endpoint % change (SD) from baseline, Femur/Hip Neck: 0.81 (5.56) %
  bone area, endpoint % change (SD) from baseline, Femur/Hip Total: 1.05 (2.98) %
  bone area, endpoint % change (SD) from baseline, Femur/Hip Trochanter: 1.92 (11.30) %
  bone area, endpoint % change (SD) from baseline, Femur/Hip Ward's triangle: 0.99 (8.06) %
  bone area, endpoint % change (SD) from baseline, Lumbar spine: 3.34 (3.72) %
  bone area, endpoint % change (SD) from baseline, Wrist 1/3 radius: 0.01 (4.42) %
  bone area, endpoint % change (SD) from baseline, Wrist Ultradistal: -0.39 (4.80) %
  bone mineral content, endpoint % change (SD) from baseline, Femur/Hip Intertrochanter: 4.99 (7.79) %
  bone mineral content, endpoint % change (SD) from baseline, Femur/Hip Neck: 5.80 (8.71) %
  bone mineral content, endpoint % change (SD) from baseline, Femur/Hip Total: 4.78 (6.70) %
  bone mineral content, endpoint % change (SD) from baseline, Femur/Hip Trochanter: 6.53 (15.33) %
  bone mineral content, endpoint % change (SD) from baseline, Femur/Hip Ward's triangle: 8.86 (17.02) %
  bone mineral content, endpoint % change (SD) from baseline, Lumbar spine: 16.62 (11.1) %
  bone mineral content, endpoint % change (SD) from baseline, Whole body: 2.28 (5.44) %
  bone mineral content, endpoint % change (SD) from baseline, Wrist 1/3 radius: -3.04 (6.09) %
  bone mineral content, endpoint % change (SD) from baseline, Wrist Ultradistal: -1.88 (7.97) %
  bone mineral density, endpoint % change (SD) from baseline, Femur/Hip Intertrochanter: 3.98 (5.96) %
  bone mineral density, endpoint % change (SD) from baseline, Femur/Hip Neck: 5.06 (6.73) %
  bone mineral density, endpoint % change (SD) from baseline, Femur/Hip Total: 3.60 (5.42) %
  bone mineral density, endpoint % change (SD) from baseline, Femur/Hip Trochanter: 4.40 (7.45) %
  bone mineral density, endpoint % change (SD) from baseline, Femur/Hip Ward's triangle: 7.85 (13.24) %
  bone mineral density, endpoint % change (SD) from baseline, Lumbar spine: 13.7 (9.69) %
  bone mineral density, endpoint % change (SD) from baseline, Wrist 1/3 radius: -3.17 (4.62) %
  bone mineral density, endpoint % change (SD) from baseline, Wrist Ultradistal: -1.76 (7.20) %
[7]
  bone quality (crystallites): improved bone quality by replacing old bone (large crystallites) with young bone
[8]; bone formation markers
  serum total alkaline phosphatase (ALP) and osteocalcin: restored levels back to sham values
[8]; [13]
  1,25-dihydroxyvitamin D: higher
  endogenous PTH: lower
  serum phosphate: lower
  urinary cAMP: higher
[8]; marker of bone resorption, compared to ovariectomized controls
  Urinary C-telopeptide (CrossLaps) excretion: not altered
Ovariectomized Primates [9]; [14]
  A (cross-sectional area): 90.9±2.3 mm^2
  E (Young's modulus): 659±42 Mpa
  Fy (yield force): 1899±73^a N
  S (stiffness): 7401±432^a N/mm
Ovariectomized Primates [9]; PTH1: 1 µg/kg for 18 months
  E (Young's modulus): 717±48^a Mpa
  Fy (yield force): 1915±105^a N
  S (stiffness): 7701 ± 474^a N/mm
Ovariectomized Primates [9]; [15]
  A (cross-sectional area): 82.8±2.1 mm^2
  E (Young's modulus): 698±41^a Mpa
  Fy (yield force): 1792±39^a N
  S (stiffness): 7074±314^a N/mm
Ovariectomized Primates [9]; PTH5: 5 µg/kg for 18 months
  A (cross-sectional area): 87.3±2.7 mm^2
  E (Young's modulus): 759±36^a Mpa
  Fy (yield force): 2113±77^3.0 N
  S (stiffness): 8012 ±367^a N/mm
Ovariectomized Primates [9]; [10]
  increase of strength (Fy) in the vertebrae: up to 43%
